Results published in US7135473B2, “Cyclic diamine compound with condensed-ring groups” (Kowa Co., Ltd., priority 2001, dated 2006).

Columns and labels:
[1] = system: U937 cells adhered to HUVEC stimulated by TNFα; experiment: Inhibitory effect on cell adhesion, stimulation by TNFα; type: cell-based; conditions: Homo sapiens, compound at 1 μM, read-out: Inhibitory activity against cell adhesion, Percent inhibition (%), Stimulation by TNFα
Method: (§1) This test was conducted by reference to the method of Ross et al. (J. Biol. Chem., 267, 8537–8543(1992). More specifically, after human umbilical venous endothelial cells (HUVEC) were cultured on a 48-well plate to confluent growth, IL-1β or TNFα was added thereto. After culturing for 5 hours, U937, which is a human monocytic/histocytic cell fluorescence-labeled with PKH2(product of Dainippon Pharmaceutical Co., Ltd.), was added in a proportion of 1×10^6 cells per well. After the plate was left at rest at room temperature for 1 hour, unadhered U937 was washed out and lysed in 1% Triton X-100 to measure a remaining fluorescence intensity (excitation wavelength: 480 nm; measuring wavelength: 530 nm). HUVEC and U937 were cultured in EGM-2 (product of Sanko Junyaku K. K.) and 10% FCS-containing RPMI1640, respectively. Each test agent was added to HUVEC upon the addition of IL-1β or TNFα and to U937 24 hours prior to the cell adhesion test. The inhibitory activity was calculated out according to the equation [100−(C−B)/(A−B)×100(%)], wherein A is the number of U937 cells adhered to HUVEC stimulated by IL-1β or TNFα when no test agent was added, B is the number of U937 cells adhered to HUVEC not stimulated by IL-1β or TNFα when no test agent was added, and C is the number of U937 cells adhered to HUVEC stimulated by IL-1β or TNFα when the test agent was added. As control compounds, Test Compound 1 described in Japanese Patent Application Laid-Open No. 9–143075 and dilazep described in Japanese Patent Application Laid-Open No. 11–92382 were simultaneously evaluated.

[2] = system: U937 cells adhered to HUVEC stimulated by IL-1β; experiment: Inhibitory effect on cell adhesion, stimulation by IL-1β; type: cell-based; conditions: Homo sapiens, compound at 1 μM, read-out: Inhibitory activity against cell adhesion, Percent inhibition (%), Stimulation by IL-1β
Method: as §1

| Structure (SMILES) | inhibition at 1 µM [1] | inhibition at 1 µM [2] |
| --- | --- | --- |
| COc1cc2nc(CN3CCN(Cc4nc5cc(OC)c(OC)c(OC)c5s4)CC3)sc2c(OC)c1OC [Example 32, N,N′-bis[(5,6,7-trimethoxybenzothiazol-2-yl)methyl]piperazine] | 52% | 54% |
| COc1cc2cc(CCN3CCCN(CCc4ccc5c(OC)c(OC)c(OC)cc5c4)CC3)ccc2c(OC)c1OC [Example 6, N,N′-bis[2-(5,6,7-trimethoxynaphthalen-2-yl)ethyl]homopiperazine] | 69% | 57% |
| COc1cc(C(=O)OCCCN2CCCN(CCCOC(=O)c3cc(OC)c(OC)c(OC)c3)CC2)cc(OC)c1OC [Dilazep, dilazep, reference compound] | 12% | 0% |
| COc1cc2sc(CN3CCCN(Cc4cc5c(OC)c(OC)c(OC)cc5s4)CC3)cc2c(OC)c1OC [Example 41, N,N′-bis[(4,5,6-trimethoxybenzothiophen-2-yl)methyl]homopiperazine] | 27% | 52% |
| COc1cc2nc(CN3CCCN(Cc4nc5cc(OC)c(OC)c(OC)c5s4)CC3)sc2c(OC)c1OC [Example 33, N,N′-bis[(5,6,7-trimethoxybenzothiazol-2-yl)methyl]homopiperazine] | 79% | 64% |
